Source: patent publication US8481457B2, “Method for the improved use of the production potential of transgenic plants” (priority 2007, dated 2013)

How the values were obtained:
Assay type in all cases: in vivo
[1] = test system: larvae of the beet armyworm (Spodoptera exigua); assay: Example 8: Spodoptera exigua on Maize, dip application, kill in %; conditions: 100 ppm
Description: (§1) Pots with in each case 5 transgenic maize plants having Coleoptera, Lepidoptera and/or herbicide resistance (cultivars LH332RR×LH324BT, LH244RR×LH324, HC33CRW×LH287BTCRW and TR47×TR 7322 BT) are treated in 2 replications against larvae of the beet armyworm (Spodoptera exigua). Application is carried out by dip application with the respective active compound at the desired application rate.
(§2) After the desired period of time, the kill in % is determined. 100% means that all caterpillars have been killed; 0% means that none of the caterpillars have been killed.

[2] = test system: armyworm (Spodoptera frugiperda); assay: Example 10: Spodoptera frugiperda on Maize (Drench Application), kill in %; conditions: 100 ppm
Description: Pots with in each case 5 transgenic maize plants having Coleoptera. Lepidoptera and/or herbicide resistance (cultivars HC33CRW×LH287BTCRW, LH332RR×LH324BT, LH24-4RR×LH324 and FR 1064LL×FR 2108) are treated in 2 replications against the armyworm (Spodoptera frugiperda). Application is carried out by drench application with the respective active compound at the desired application rate.
as §2

[3] = test system: armyworm (Spodoptera frugiperda); assay: Example 9: Spodoptera frugiperda on Maize, dip application, kill in %; conditions: 100 ppm
Description: as §1, with “HC33CRW×LH287BTCRW,” for “LH332RR×LH324BT, LH244RR×LH324, HC33CRW×LH287BTCRW and”, “against” for “against larvae of”, “the” for “the beet”, “frugiperda).” for “exigua).”
as §2

[4] = test system: larvae of the cotton bollworm (Heliothis armigera); assay: Example 5: Heliothis armigera on Cotton (DP444 BG/RR), dip application, kill in %
Description: Individually potted transgenic cotton plants with Lepidoptera resistance and herbicide resistance (cultivar DP444 BG/RR) are treated in 2 replications against larvae of the cotton bollworm (Heliothis armigera). Application is carried out by dip application with the respective active compound at the desired application rate.
as §2

[5] = test system: cotton aphid (Aphis gossypii); assay: Example 4: Aphis gossypii on Cotton (DP444 BG/RR), dip application, kill in %; conditions: 0.8 ppm
Description: Individually potted transgenic cotton plants with Lepidoptera resistance and herbicide resistance (cultivar DP444 BG/RR), which are populated by a mixed population of the cotton aphid (Aphis gossypii) are treated by dip application with the respective active compound.
After the desired period of time, the kill in % is determined. 100% means that all aphids have been killed; 0% means that none of the aphids have been killed.

[6] = test system: larvae of the banded cucumber beetle (Diabrotica balteata); assay: Example 7: Diabrotica balteata on Maize, drench application, kill in %; conditions: 100 ppm
Description: Pots with in each case 5 transgenic maize plants having Coleoptera, Lepidoptera and/or herbicide resistance (cultivars LH244RR×LH324 and HCL 201CRW2RR2×LH 324) are treated in 2 replications against larvae of the banded cucumber beetle (Diabrotica balteata). Application is carried out by drench application with the respective active compound at the desired application rate.
After the desired period of time, the kill in % is determined. 100% means that all beetle larvae have been killed; 0% means that none of the beetle larvae have been killed.

[7] = test system: armyworm (Spodoptera frugiperda); assay: Example 6: Spodoptera frugiperda on Cotton (DP444 BG/RR), dip application, kill in %
Description: Individually potted transgenic cotton plants with Lepidoptera resistance and herbicide resistance (cultivar DP444 BG/RR) are treated in 2 replications against the armyworm (Spodoptera frugiperda). Application is by dip application with the respective active compound at the desired application rate.
as §2

Row | SMILES | Kill rate in % after 4d (found) [1] [%] | Kill rate in % after 6d (found) [2] [%] | Kill rate in % after 4d (found) [3] [%] | Kill rate in % after 4d (found) ([4]; 100 ppm) [%] | Kill rate in % after 6d (found) ([5]; after 6 d) [%] | Kill rate in % after 10d (found) [6] [%] | Kill rate in % after 1d (found) ([3]; after 1 d) [%] | Kill rate in % after 4d (found) ([7]; 20 ppm, after 4 d) [%] | Kill rate in % after 1d (found) ([5]; after 1 d) [%] | Kill rate in % after 4d (found) ([4]; 20 ppm) [%] | Kill rate in % after 6d (found) ([7]; 100 ppm, after 6 d) [%]
1 | O=C1C=C(N(CCF)Cc2ccc(Cl)nc2)CO1 [Compound I-4, 4-{[(6-chloropyrid-3-yl)methyl](2-fluoroethyl)amino}furan-2(5H)-one] | 0 | 15 | 0 | 0 | 15 | – | – | – | – | – | –
2 | O=C1C=C(N(Cc2ccc(Cl)nc2)CC(F)F)CO1 [Compound I-5, 4-{[(6-chloropyrid-3-yl)methyl](2,2-difluoroethyl)amino}furan-2(5H)-one] | – | – | 10 | – | – | 45 | 0 | 0 | 40 | – | –
3 | CN(Cc1cnc(Cl)c(F)c1)C1=CC(=O)OC1 [Compound I-6, 4-{[(6-chloro-5-fluoropyrid-3-yl)methyl](methyl)amino}furan-2(5H)-one] | 0 | 0 | 0 | – | – | – | – | – | – | 0 | 20
4 | CN(Cc1ccc(Cl)nc1)C1=CC(=O)OC1 [Compound I-10, 4-{[(6-chloropyrid-3-yl)methyl](methyl)amino}furan-2(5H)-one] | 10 | 0 | – | – | – | – | – | – | – | – | –
